From patent publication US12582681B2, “Fermented milk product for administration in canids such as dogs, and uses thereof” (priority 2019, dated 2026)
Converted amounts (≈) assume the structure as drawn. Read-outs that look alike come from different tables or passages of the source.

Legend:
[1] = system: Lactobacillus reuteri CECT 9859; test: Broth microdilution MIC (MRS and LSM medium); format: cell-based; details: for Category (LSM) / Category (MRS): against EFSA (2018) breakpoints; for Category (LSM): key: S, susceptible; R, resistant; for Category (MRS): key: S, susceptible; R, resistant
[2] = system: S. aureus ATCC25923; test: Broth microdilution MIC, control strain; format: cell-based; details: for Category: against CLSI values; for Category: key: S, susceptible; R, resistant
[3] = Limosilactobacillus reuteri, CECT9859, 24 h, LSM medium, anaerobic, 37° C., 24 h, read-out: MIC
[4] = Limosilactobacillus reuteri, CECT9859, 24 h, MRS medium, anaerobic, 37° C., 24 h, read-out: MIC
[5] = Staphylococcus aureus, ATCC25923
[6] = Staphylococcus aureus, ATCC25923, MH medium, control strain, read-out: MIC

Compound | Category (LSM) ([1]; LSM medium) | MIC [1, 3] [mg/L] | MIC [1, 4] [mg/L] | Susceptibility of the strain ([1]; MRS and LSM) | Category (MRS) ([1]; MRS medium) | Category ([2]; MH medium) | MIC [2, 5] [mg/L] | MIC [2, 6] [mg/L] | MIC ([1]; Limosilactobacillus reuteri, CECT9859, 24 h) [mg/L] | MIC ([1]; LSM medium, anaerobic, 37° C., 24 h) [mg/L] | MIC ([1]; MRS medium, anaerobic, 37° C., 24 h) [mg/L] | MIC ([2]; MH medium, control strain) [mg/L]
CN[C@H](CC(C)C)C(=O)N[C@H]1C(=O)N[C@@H](CC(N)=O)C(=O)N[C@H]2C(=O)N[C@H]3C(=O)N[C@H](C(=O)N[C@H](C(=O)O)c4cc(O)cc(O)c4-c4cc3ccc4O)[C@H](O)c3ccc(c(Cl)c3)Oc3cc2cc(c3O[C@@H]2O[C@H](CO)[C@@H](O)[C@H](O)[C@H]2O[C@H]2C[C@](C)(N)[C@H](O)[C@H](C)O2)Oc2ccc(cc2Cl)[C@H]1O [Vancomycin] | R | 512 (≈ 353 µM) | > 512 | resistant | R | S | 1 (≈ 0.69 µM) | – | – | – | – | –
CN(C)[C@@H]1C(O)=C(C(N)=O)C(=O)[C@@]2(O)C(O)=C3C(=O)c4c(O)cccc4[C@@](C)(O)[C@H]3C[C@@H]12 [Tetracycline] | S | 8 (≈ 18 µM) | 4 (≈ 9 µM) | – | S | S | – | 1 (≈ 2.25 µM) | – | – | – | –
CC1(C)S[C@@H]2[C@H](NC(=O)[C@H](N)c3ccccc3)C(=O)N2[C@H]1C(=O)O [Ampicillin] | S | 0.25 (≈ 0.715 µM) | 0.25 (≈ 0.715 µM) | – | S | S | – | 0.125 (≈ 0.358 µM) | – | – | – | –
NC[C@H]1O[C@H](O[C@H]2[C@H](O)[C@@H](O[C@H]3O[C@H](CO)[C@@H](O)[C@H](N)[C@H]3O)[C@H](N)C[C@@H]2N)[C@H](O)[C@@H](O)[C@@H]1O [Kanamycin] | S | 64 (≈ 132 µM) | 512 (≈ 1060 µM) | – | R | S | – | 2 (≈ 4.13 µM) | – | – | – | –
O=C(N[C@H](CO)[C@H](O)c1ccc([N+](=O)[O-])cc1)C(Cl)Cl [Chloramphenicol] | S | 4 (≈ 12.4 µM) | 4 (≈ 12.4 µM) | – | S | S | – | 4 (≈ 12.4 µM) | – | – | – | –
[H]/N=C(/N)N[C@H]1[C@H](O)[C@@H](O)[C@H](O[C@@H]2O[C@@H](C)[C@](O)(C=O)[C@H]2O[C@@H]2O[C@@H](CO)[C@H](O)[C@@H](O)[C@@H]2NC)[C@@H](N/C(N)=N\[H])[C@@H]1O [Streptomycin] | S | 16 (≈ 27.5 µM) | 128 (≈ 220 µM) | – | R | – | – | 2 (≈ 3.44 µM) | – | – | – | –
CC[C@H]1OC(=O)[C@H](C)[C@@H](O[C@H]2C[C@@](C)(OC)[C@@H](O)[C@H](C)O2)[C@H](C)[C@@H](O[C@@H]2O[C@H](C)C[C@H](N(C)C)[C@H]2O)[C@](C)(O)C[C@@H](C)C(=O)[C@H](C)[C@@H](O)[C@]1(C)O [Erythromycin] | S | – | 0.25 (≈ 0.341 µM) | – | S | S | 0.125 (≈ 0.17 µM) | – | 0.125 (≈ 0.17 µM) | – | – | –
Gentamicin | S | – | – | – | R | S | – | – | – | 2 | 16 | 0.125
CCC[C@@H]1C[C@@H](C(=O)N[C@@H]([C@H]2O[C@H](SC)[C@H](O)[C@@H](O)[C@H]2O)[C@H](C)Cl)N(C)C1 [Clindamycin] | S | 0.25 (≈ 0.588 µM) | 0.25 (≈ 0.588 µM) | – | S | S | 0.125 (≈ 0.294 µM) | – | – | – | – | –
